The record followed here is PubChem BioAssay (NCI).

Several values for one entry are separate records, joined by “and”; a condition that tells them apart may be missing. Identical values can stand only once.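 Step 1: Grow cells in 96-well plates. Step 2: Expose to compound for 48 hours at 5 concentrations. Step 3: Interpolate endpoints linearly; if unreached, use highest concentration. Abbreviation: GI50, concentration required for 50% inhibition of growth. TGI: total growth inhibition.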 Where only a bound is given, the exact number is not on record here.

Among the test systems are KM12 colon; SNB-75 CNS; DU-145 prostate; MOLT-4 leukemia; SN12C renal; HOP-62 NSCLC; T-47D breast; COLO 205 colon; SK-MEL-2 melanoma; HOP-92 NSCLC.
Experiment in all cases: growth of human tumour cells (NCI), 48 h

`O=[N+]([O-])c1ccccc1/C=N\NC(=S)N/N=C/c1ccccc1[N+](=O)[O-]`: the GI50 in the test on KM12 colon was 2550 nM; in the test with SNB-75 CNS, 2210 nM; in the test with DU-145 prostate, 5340 nM; in the test with MOLT-4 leukemia it was 6.47 µM; in the test on SN12C renal, 10.6 µM; in the test on HOP-62 NSCLC, 5.57 µM. The GI50 in the test with T-47D breast is 4.93 µM; with COLO 205 colon it was 11.3 µM; in the test on SK-MEL-2 melanoma, 6.41 µM; with HOP-92 NSCLC, 26.2 µM. The TGI in the test with KM12 colon was above 100 µM; in the test with SNB-75 CNS it was 8.75 µM; in the test on DU-145 prostate it was 38.2 µM; in the test with MOLT-4 leukemia, above 100 µM; in the test on SN12C renal it was above 100 µM; in the test on HOP-62 NSCLC, above 100 µM. For the same compound, the TGI in the test on T-47D breast, in the test with COLO 205 colon, with SK-MEL-2 melanoma and in the test on HOP-92 NSCLC was above 100 µM each time.
For `CCc1nc(N)nc(N)c1C#CC(C)c1ccc(-c2ccncc2)cc1Cl` (stereo not given), the GI50 in the test on KM12 colon is 27.1 nM and 67.8 nM; in the test on SNB-75 CNS, 505 nM and 1670 nM; with DU-145 prostate, 24.2 nM and 65.8 nM; in the test on MOLT-4 leukemia, 0.0276 µM and 0.0493 µM; with SN12C renal, 0.0189 µM and 0.148 µM; in the test with HOP-62 NSCLC it was 0.0266 µM and 0.0528 µM. The GI50 with T-47D breast is 0.0896 µM and 0.675 µM; in the test on COLO 205 colon it was 0.0387 µM and 0.0515 µM; in the test on SK-MEL-2 melanoma, 0.579 µM and 1.75 µM; in the test with HOP-92 NSCLC, 0.109 µM and 0.547 µM. In addition, the TGI with KM12 colon is 5.73 µM and 14.5 µM; in the test on SNB-75 CNS, 2.76 µM and 9.74 µM; with DU-145 prostate, 5.01 µM and 13.7 µM; in the test on MOLT-4 leukemia, 4.62 µM and 8.45 µM; in the test on SN12C renal, 5.67 µM and 17.2 µM; in the test with HOP-62 NSCLC, 1.92 µM and 13.9 µM. Further, the TGI in the test on T-47D breast was 2.2 µM and 13.6 µM; in the test on COLO 205 colon, 2.58 µM and 11.7 µM; in the test with SK-MEL-2 melanoma it was 3.33 µM and 17.6 µM; in the test on HOP-92 NSCLC it was 1.56 µM and 6.36 µM.
Regarding `Cc1cc(NC(=O)NCCOc2ccc(N3C(N)=NC(N)=NC3(C)C)cc2Cl)ccc1S(=O)(=O)F`, the GI50 in the test on KM12 colon is 1040 nM; with SNB-75 CNS, 1530 nM; in the test on DU-145 prostate, 2530 nM; in the test on MOLT-4 leukemia it was 4.31 µM; with SN12C renal, 1.85 µM; with HOP-62 NSCLC it was 8.36 µM. Also, the GI50 in the test on T-47D breast is 5.13 µM; with COLO 205 colon, 1.4 µM; with SK-MEL-2 melanoma, 5.29 µM; in the test on HOP-92 NSCLC it was 5.07 µM. Also, the TGI is above 44.3 µM in the test with KM12 colon; 48.3 µM with SNB-75 CNS; above 100 µM in the test with DU-145 prostate; above 100 µM with MOLT-4 leukemia; above 100 µM in the test on SN12C renal; above 73.2 µM with HOP-62 NSCLC. The TGI in the test on T-47D breast worked out at 74.9 µM; in the test on COLO 205 colon, 30.4 µM; in the test with SK-MEL-2 melanoma, 27.1 µM; in the test with HOP-92 NSCLC it was 22.2 µM.
With `COc1ccc(C2=Nn3c(nnc3-c3ccc(F)c(Cl)c3)SC2)cc1`, the GI50 with KM12 colon was above 100000 nM; with SNB-75 CNS, 63300 nM; in the test on DU-145 prostate, above 100000 nM; with MOLT-4 leukemia, above 100 µM; with SN12C renal, 5.53 µM; with HOP-62 NSCLC, above 100 µM. In addition, the GI50 was above 100 µM in the test with T-47D breast, above 100 µM with COLO 205 colon, above 100 µM in the test with SK-MEL-2 melanoma and 18.1 µM in the test with HOP-92 NSCLC. The TGI in the test with KM12 colon, with SNB-75 CNS, with DU-145 prostate, in the test on MOLT-4 leukemia, in the test on SN12C renal and in the test with HOP-62 NSCLC was above 100 µM in each case. Moreover, the TGI in the test on T-47D breast is above 100 µM; in the test on COLO 205 colon, above 100 µM; with SK-MEL-2 melanoma, above 100 µM; with HOP-92 NSCLC, 56.7 µM.
With `O=C(O)CCC(O)=C1S(=O)(=O)OCCOS1(=O)=O`, the TGI with KM12 colon, in the test with SNB-75 CNS, with DU-145 prostate, with MOLT-4 leukemia, with SN12C renal and with HOP-62 NSCLC was above 100 µM each time. Further, the TGI with T-47D breast, in the test with COLO 205 colon, in the test on SK-MEL-2 melanoma and in the test on HOP-92 NSCLC was above 100 µM throughout.
For `CN[C@@H](C)C(=O)N[C@H](C(=O)N1CCC[C@H]1c1nc(C(=O)c2ccc(F)cc2)cs1)C1CCCCC1`, the GI50 in the test on KM12 colon is 21800 nM; in the test on SNB-75 CNS, 4310 nM; in the test with DU-145 prostate, 44500 nM; in the test on MOLT-4 leukemia, 20 µM; in the test on SN12C renal, 39.2 µM; in the test with HOP-62 NSCLC, 20 µM. The GI50 with T-47D breast was 20.4 µM; with COLO 205 colon, 16.5 µM; in the test with SK-MEL-2 melanoma, 2.93 µM; in the test on HOP-92 NSCLC, 2.8 µM. The TGI with KM12 colon is 51.4 µM; in the test with SNB-75 CNS, 20.9 µM; in the test on DU-145 prostate, above 100 µM; with MOLT-4 leukemia, 57 µM; in the test on SN12C renal, above 100 µM; with HOP-62 NSCLC, above 65 µM. Further, the TGI with T-47D breast was found to be 77.8 µM; with COLO 205 colon it was 31.9 µM; with SK-MEL-2 melanoma, 23.8 µM; with HOP-92 NSCLC, 8.98 µM.
For the compound `COc1cc(/C=C/C(=O)c2c(C)n([O-])c3ccccc3[n+]2=O)cc(OC)c1OC`, the GI50 in the test with KM12 colon is 10700 nM; in the test on SNB-75 CNS, 12500 nM; with DU-145 prostate, 2170 nM; in the test with MOLT-4 leukemia, 3.38 µM; with SN12C renal, 5.82 µM; in the test on HOP-62 NSCLC, 12.4 µM. Moreover, the GI50 is 8.71 µM with T-47D breast, 9.08 µM in the test with COLO 205 colon, 4.63 µM with SK-MEL-2 melanoma and 3.47 µM in the test with HOP-92 NSCLC. Moreover, the TGI with KM12 colon turned out to be 24.7 µM; with SNB-75 CNS, 30.8 µM; in the test with DU-145 prostate it was 13.5 µM; with MOLT-4 leukemia, 40.7 µM; with SN12C renal, 20.3 µM; with HOP-62 NSCLC, 24.9 µM. Further, the TGI was 28.7 µM with T-47D breast, 24.9 µM in the test with COLO 205 colon, 17.2 µM in the test with SK-MEL-2 melanoma and 15.7 µM with HOP-92 NSCLC.
